According to patent US20150366836A1, “METHOD AND PHARMACEUTICAL COMPOSITION FOR TREATING COLORECTAL CANCER” (National Dong Hua University, priority 2014, published 2015):

How the values were obtained:
Caco2 cells [1] = assay: MTT assay cell viability, Caco2 cells; assay type: cell-based; settings: Homo sapiens, Caco-2; Caco2 cells, 48 hr treatment
Method: (§1) Two cell lines were used in this study, Caco2 cells and HT-29 cells. Both of them are colorectal cancer cells. Caco2 cells and HT-29 cells were maintained in DMEM (or RPMI) supplemented with 20% or 10% fetal bovine serum (FBS; GIBCO), pH 7.4 at 37° C. with continuous circulation of 5% CO2 incubator. The medium was changed every 2 days and the cells were trypsinized using trypsin/EDTA when reaching 80%-90% confluence.
(§2) In this example, the effects of HCD, PG, and 5-FU on the viability of Caco2 cells and HT-29 cells were examined. The MTT assay was employed for this purpose. The MTT (3-(4-,5-dimethylthiazol-2-yl)-2,5-diphenyltetrazolium bromide) assay is a common colorimetric method in the field for cell viability analysis. MTT (yellow tetrazolium salt) is reduced to a purple formazan by living cells and detection to the purple formazan can be calculated as the cell viability.
(§3) Briefly, cells (Caco2 or HT-29) were seeded in 96-well plate (7×10^3 cell per well) and incubated overnight (37° C., 5% CO2).
(§4) On the other hand, in the pretreatment analysis, cells (Caco2 or HT-29) were seeded in 96-well plate (7×10^3 cell per well) and incubated overnight (37° C., 5% CO2). In according to the treatments listed in the Table 1, Cells were pre-treated by HCD or PG for 6, 12, 24, 36, or 48 hr and then were treated by 5-FU for additional 24 hr.

HT-29 cells [2] = assay: MTT assay cell viability, HT-29 cells; assay type: cell-based; settings: Homo sapiens; HT-29 cells, 36 hr treatment
Method: as §1, §2, §3, §4

Caco2 cells [3] = assay: Cell cycle analysis by flow cytometer (PI staining), Caco2 cells; assay type: cell-based
Method: (§5) The results of Example 2 in cell viability hinted the effects of HCD, PG, and 5-FU on arresting cell cycle. In this example, the phase of cell cycle of Caco2 and HT-29 cells after the treatment listed in Table 1 was determined by flow cytometer. Briefly, 7×10^4 cells per well were inoculated in 12-wells plate and incubated overnight at 37° C., 5% CO2. Then, cells were treated according to the treatment listed in Table 1 by indicated time period. After treatment, cells were harvested by trypsin and fixed with 70% ethanol at −20° C. for at least 3 hr. The cells were washed in cold PBS twice and then incubated with 1 mL (v/v) staining solution (20 μg/mL propidium iodide (PI), 0.1% Triton X-100, 0.2 mg/mL Rnase) at 37° C. for 30 minutes. Lastly, cells were analyzed by flow cytometer (Cytomics™ FC500, Backman, Fullerton, Calif., USA). Data from 10,000 cells were collected for each experimental group.

HT-29 cells [4] = assay: Cell cycle analysis by flow cytometer (PI staining), HT-29 cells; assay type: cell-based
Method: as §5

[5] = tested on: mouse bearing inflammatory bowel disease (IBD), AOM/DSS induced; assay: Mouse model bearing IBD (AOM/DSS induced), body weight and H&E staining of intestine; assay type: in vivo, C57/BL6 mice
Method: The animal experiments were approved by the National Dong-Hwa University Animal Ethics Committee and the experimental protocols were used according to the “Guide for the Care and Use of Laboratory Animals” of National Dong-Hwa University. On day 0, C57/BL6 mice (6-8 weeks old) were weighted and injected (intraperitoneal; i.p.) with 10 mg/kg body weight of azoxymethane (AOM) and then fed with 2% Dextran sodium sulfate solution (DSS solution) via water every day for 7 days. On day 8, the 2% DSS solution was changed to normal water for another 7 days. The cycle of DSS solution and water was repeated and the induction procedure was completed on day 35.
After the establishment of IBD in the experimental mice (on day 35), the mice were injected (i.p.) with 5-FU (15 mg/kg body weight) or HCD (0.64, 1.6, or 6.4 mg/kg body weight) once every three days for additional 30 days. Then, the mice were sacrificed. The colon, spleen, liver, and kidney thereof were immediately removed, observed, and further examined by H&E staining.

For `O=c1[nH]cc(F)c(=O)[nH]1` [5-FU, 5-Fluorouracil], the IC50 (Caco2 cells [1]) was 100 µM, the IC50 (HT-29 cells [2]) was 50 µM and the “cell cycle arrest at sub-G1 phase vs control (in words)” value (Caco2 cells [3]; Caco2) was “increased cell cycle arrest at sub-G1 phase”. The “G0/G1 (%)” value (Caco2 cells [3]; Caco2, 0.5 μM, 36 hr) was 46.15 ± 1.34 %, the “G2/M (%)” value (Caco2 cells [3]; Caco2, 0.5 μM, 36 hr) was 8.65 ± 1.48 % and the “S (%)” value (Caco2 cells [3]; Caco2, 0.5 μM, 36 hr) was 20.05 ± 1.91%. The “Sub G1 (%)” value (Caco2 cells [3]; Caco2, 0.5 μM, 36 hr) was 21.8 ± 5.09%, the “G0/G1 (%)” value (Caco2 cells [3]; Caco2, 0.5 μM, 48 hr) was 46.15 ± 1.34% and the “G2/M (%)” value (Caco2 cells [3]; Caco2, 0.5 μM, 48 hr) was 1.5 ± 0.14 %. The “S (%)” value (Caco2 cells [3]; Caco2, 0.5 μM, 48 hr) was 13.65 ± 1.34%, the “Sub G1 (%)” value (Caco2 cells [3]; Caco2, 0.5 μM, 48 hr) was 20.9 ± 3.25% and the “G0/G1 (%)” value (Caco2 cells [3]; Caco2, 2 μM, 36 hr) was 36.65 ± 1.06 %. For the same compound, the “G2/M (%)” value (Caco2 cells [3]; Caco2, 2 μM, 36 hr) was 1.85 ± 0.5 %, the “S (%)” value (Caco2 cells [3]; Caco2, 2 μM, 36 hr) was 17.1 ± 2.12% and the “Sub G1 (%)” value (Caco2 cells [3]; Caco2, 2 μM, 36 hr) was 40.1 ± 1.69 %. For the same compound, the “G0/G1 (%)” value (Caco2 cells [3]; Caco2, 2 μM, 48 hr) was 35.35 ± 2.47 %, the “G2/M (%)” value (Caco2 cells [3]; Caco2, 2 μM, 48 hr) was 3.55 ± 3.89 % and the “S (%)” value (Caco2 cells [3]; Caco2, 2 μM, 48 hr) was 18.05 ± 10.11%. The “Sub G1 (%)” value (Caco2 cells [3]; Caco2, 2 μM, 48 hr) was 37.55 ± 14.64 %, the “G0/G1 (%)” value (Caco2 cells [3]; Caco2, 5 μM, 36 hr) was 39.1 ± 5.66 % and the “G2/M (%)” value (Caco2 cells [3]; Caco2, 5 μM, 36 hr) was 1.05 ± 0.21%. For the same compound, the “S (%)” value (Caco2 cells [3]; Caco2, 5 μM, 36 hr) was 12.5 ± 0.71%, the “Sub G1 (%)” value (Caco2 cells [3]; Caco2, 5 μM, 36 hr) was 42.6 ± 5.37 % and the “G0/G1 (%)” value (Caco2 cells [3]; Caco2, 5 μM, 48 hr) was 36.7 ± 8.06 %. For the same compound, the “G2/M (%)” value (Caco2 cells [3]; Caco2, 5 μM, 48 hr) was 2.7 ± 2.95 %, the “S (%)” value (Caco2 cells [3]; Caco2, 5 μM, 48 hr) was 17.5 ± 10.47% and the “Sub G1 (%)” value (Caco2 cells [3]; Caco2, 5 μM, 48 hr) was 38.3 ± 24.47 %. For the same compound, the “cell cycle arrest at sub-G1 phase vs control (in words)” value (HT-29 cells [4]; HT-29) was “increased cell cycle arrest at sub-G1 phase”, the “G0/G1 (%)” value (HT-29 cells [4]; HT-29, 0.5 μM, 24 hr) was 40.05 ± 0.35 % and the “G2/M (%)” value (HT-29 cells [4]; HT-29, 0.5 μM, 24 hr) was 17.45 ± 3.04%. For the same compound, the “S (%)” value (HT-29 cells [4]; HT-29, 0.5 μM, 24 hr) was 28.65 ± 1.20 %, the “Sub G1 (%)” value (HT-29 cells [4]; HT-29, 0.5 μM, 24 hr) was 6.75 ± 0.35% and the “G0/G1 (%)” value (HT-29 cells [4]; HT-29, 0.5 μM, 36 hr) was 46.15 ± 1.34 %. For the same compound, the “G2/M (%)” value (HT-29 cells [4]; HT-29, 0.5 μM, 36 hr) was 8.65 ± 1.48 %, the “S (%)” value (HT-29 cells [4]; HT-29, 0.5 μM, 36 hr) was 20.05 ± 1.91% and the “Sub G1 (%)” value (HT-29 cells [4]; HT-29, 0.5 μM, 36 hr) was 21.8 ± 5.09%. For the same compound, the “G0/G1 (%)” value (HT-29 cells [4]; HT-29, 2 μM, 24 hr) was 50.3 ± 0.85%, the “G2/M (%)” value (HT-29 cells [4]; HT-29, 2 μM, 24 hr) was 9.15 ± 0.78 % and the “S (%)” value (HT-29 cells [4]; HT-29, 2 μM, 24 hr) was 26.15 ± 1.77 %. For the same compound, the “Sub G1 (%)” value (HT-29 cells [4]; HT-29, 2 μM, 24 hr) was 7.75 ± 0.21%, the “G0/G1 (%)” value (HT-29 cells [4]; HT-29, 2 μM, 36 hr) was 36.65 ± 1.06 % and the “G2/M (%)” value (HT-29 cells [4]; HT-29, 2 μM, 36 hr) was 1.85 ± 0.5 %. For the same compound, the “S (%)” value (HT-29 cells [4]; HT-29, 2 μM, 36 hr) was 17.1 ± 2.12%, the “Sub G1 (%)” value (HT-29 cells [4]; HT-29, 2 μM, 36 hr) was 40.1 ± 1.69 % and the “G0/G1 (%)” value (HT-29 cells [4]; HT-29, 5 μM, 24 hr) was 56.65 ± 6.01%. For the same compound, the “G2/M (%)” value (HT-29 cells [4]; HT-29, 5 μM, 24 hr) was 9.4 ± 3.68 %, the “S (%)” value (HT-29 cells [4]; HT-29, 5 μM, 24 hr) was 21.45 ± 2.33 % and the “Sub G1 (%)” value (HT-29 cells [4]; HT-29, 5 μM, 24 hr) was 6.85 ± 0.64%. For the same compound, the “G0/G1 (%)” value (HT-29 cells [4]; HT-29, 5 μM, 36 hr) was 39.1 ± 5.66 %, the “G2/M (%)” value (HT-29 cells [4]; HT-29, 5 μM, 36 hr) was 1.05 ± 0.21% and the “S (%)” value (HT-29 cells [4]; HT-29, 5 μM, 36 hr) was 12.5 ± 0.71%. For the same compound, the “Sub G1 (%)” value (HT-29 cells [4]; HT-29, 5 μM, 36 hr) was 42.6 ± 5.37 %, the “intestine villus arrangement (H&E staining)” value ([5]; 15 mg/kg body weight i.p.) was “irregular arrangement of villus” and the “lymph node (H&E staining)” value ([5]; 15 mg/kg body weight i.p.) was “enlarged”. The body weight ([5]; 15 mg/kg body weight i.p. once every three days, 30 days) was “initially reduced”.
